Results as given in patent US6552062B1, “Indazole derivatives with 5-HT2 receptor activity” (Vernalis Research Limited, priority 1998, dated 2003).
Counter-ions that a name gives are not always drawn.

Key:
human 5-HT2C [1] = biological target: T1, human 5-HT2C (Homo sapiens, UniProt P28335); experiment: Functional activity, FLIPR calcium assay, CHO cells expressing human 5-HT2C; format: cell-based; set-up: expressed in transfected cells; host or cells: CHO cells; settings: for EC50: CHO cells, FLIPR, Fluo-3-AM, read-out: h5-HT2C EC50; for Emax: CHO, maximum fluorescent signal relative to 10 μM 5-HT (defined as 100%), read-out: h5-HT2C Relative Efficacy (%)
T1 sequence (P28335 33-458): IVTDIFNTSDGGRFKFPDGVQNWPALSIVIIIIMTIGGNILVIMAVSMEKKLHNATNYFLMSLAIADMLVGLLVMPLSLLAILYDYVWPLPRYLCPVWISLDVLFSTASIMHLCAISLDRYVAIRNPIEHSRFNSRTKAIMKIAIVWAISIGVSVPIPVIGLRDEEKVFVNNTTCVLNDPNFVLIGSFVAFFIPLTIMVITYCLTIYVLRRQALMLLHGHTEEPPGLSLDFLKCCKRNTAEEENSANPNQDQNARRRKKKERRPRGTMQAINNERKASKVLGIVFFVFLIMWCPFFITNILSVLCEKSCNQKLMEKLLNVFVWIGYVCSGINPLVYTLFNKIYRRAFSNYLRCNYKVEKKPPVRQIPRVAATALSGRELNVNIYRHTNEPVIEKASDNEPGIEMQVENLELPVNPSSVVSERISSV
Description: (§1) The functional activity of compounds of formula (I) was assayed using a Fluorimetric Imaging Plate reader (FLIPR). CHO cells expressing the human 5-HT2C or human 5-HT2A receptors were counted and plated into standard 96 well microtitre plates on the day before testing to give a confluent monolayer. The cells were then dye loaded with the calcium sensitive dye, Fluo-3-AM. Unincorporated dye was removed using an automated cell washer to leave a total volume of 100 μL/well of assay buffer (Hanks balanced salt solution containing 20 mM Hepes and 2.5 mM probenecid). The drug (dissolved in 50 μL of the assay buffer) was added at a rate of 70 μL/sec to each well of the FLIPR 96 well plate during fluorescence measurements. The measurements were taken at 1 sec intervals and the maximum fluorescent signal was measured (approx 10-15 secs after drug addition) and compared with the response produced by 10 μM 5-HT (defined as 100%) to which it was expressed as a percentage response (relative efficacy). Dose response curves were constructed using Graphpad Prism (Graph Software Inc.).

human 5-HT2B receptors = biological target: T2, human 5-HT2B receptors (Homo sapiens, UniProt P41595); experiment: Binding to 5-HT2B receptor, [3H]-5-HT radioligand, Method (b); settings: human 5-HT2B receptors in a CHO cell line, read-out: Method (b) Ki (2B)
T2 construct: expressed in transfected cells; host or cells: CHO cell line
T2 sequence (P41595 whole entry): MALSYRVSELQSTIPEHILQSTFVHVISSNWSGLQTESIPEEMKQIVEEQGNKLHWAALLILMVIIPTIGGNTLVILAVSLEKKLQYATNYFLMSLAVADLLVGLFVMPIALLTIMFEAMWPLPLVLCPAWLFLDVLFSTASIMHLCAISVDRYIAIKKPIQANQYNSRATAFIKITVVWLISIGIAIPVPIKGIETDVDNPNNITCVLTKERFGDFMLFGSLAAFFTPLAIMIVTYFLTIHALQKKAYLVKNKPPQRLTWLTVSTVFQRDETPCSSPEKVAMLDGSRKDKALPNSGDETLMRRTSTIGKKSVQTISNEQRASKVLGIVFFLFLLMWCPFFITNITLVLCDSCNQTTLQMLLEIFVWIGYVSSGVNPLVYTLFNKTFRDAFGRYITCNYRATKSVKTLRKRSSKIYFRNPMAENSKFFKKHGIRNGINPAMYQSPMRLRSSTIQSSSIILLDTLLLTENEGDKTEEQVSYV
Description: (§2) The binding of compounds of formula I to serotonin receptors was determined in vitro by standard methods. The preparations were investigated in accordance with the assays given hereinafter.
Method (b): For the binding to the 5-HT2B receptor the 5-HT2B receptors were radiolabeled with [^3H]-5-HT. The affinity of the compounds for human 5-HT2B receptors in a CHO cell line was determined according to the procedure of K. Schmuck, C. Ullmer, P. Engels and H. Lubbert, FEBS Lett., 1994, 342, 85-90.

human 5-HT2A receptors = biological target: T3, human 5-HT2A receptors (Homo sapiens, UniProt P28223); experiment: Functional activity, FLIPR calcium assay, CHO cells expressing human 5-HT2A; format: cell-based; settings: for EC50: CHO cells, FLIPR, Fluo-3-AM, read-out: h5-HT2A EC50; for h5-HT2A Relative Efficacy (%): maximum fluorescent signal relative to 10 μM 5-HT (defined as 100%)
T3 construct: expressed in transfected cells; host or cells: CHO cells
T3 sequence (P28223 whole entry): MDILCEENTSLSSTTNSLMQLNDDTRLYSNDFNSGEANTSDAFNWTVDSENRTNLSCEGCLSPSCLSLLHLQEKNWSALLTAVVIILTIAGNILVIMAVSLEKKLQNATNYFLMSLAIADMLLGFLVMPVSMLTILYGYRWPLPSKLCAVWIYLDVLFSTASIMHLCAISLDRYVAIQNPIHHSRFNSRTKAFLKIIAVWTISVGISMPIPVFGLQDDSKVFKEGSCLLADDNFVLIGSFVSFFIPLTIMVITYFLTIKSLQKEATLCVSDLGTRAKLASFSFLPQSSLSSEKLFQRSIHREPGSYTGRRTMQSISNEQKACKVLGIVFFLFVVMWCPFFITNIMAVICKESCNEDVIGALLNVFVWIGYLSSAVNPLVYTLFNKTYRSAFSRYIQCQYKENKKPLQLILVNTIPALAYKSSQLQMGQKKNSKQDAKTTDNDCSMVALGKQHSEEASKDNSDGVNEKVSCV
Description: as §1

human 5-HT2C [2] = biological target: T1, human 5-HT2C; experiment: Binding to 5-HT2C receptor, [3H]-5-HT radioligand, Method (a); set-up: expressed in transfected cells; host or cells: CHO cell line; settings: 5-HT2C receptors in a CHO cell line, read-out: Method (a) Ki (2C)
Description: as §2
Method (a): For the binding to the 5-HT2C receptor the 5-HT2C receptors were radiolabeled with [^3H]-5-HT. The affinity of the compounds for 5-HT2C receptors in a CHO cell line was determined according to the procedure of D. Hoyer, G. Engel and H. O. Kalkman, European J Pharmacol., 1985, 118, 13-23.

SMILES | melting point [°C] | EC50 (human 5-HT2C [1]) [nM] | Emax (human 5-HT2C [1]) [%] | Ki (human 5-HT2B receptors) [nM] | EC50 (human 5-HT2A receptors) [nM] | h5-HT2A Relative Efficacy (%) (human 5-HT2A receptors) | Ki (human 5-HT2C [2]) [nM]
Cc1nn(C[C@H](C)N)c2cc(Cl)c(F)cc12 (as salt: fumarate) [Example 4, (S)-1-(6-Chloro-5-fluoro-3-methylindazol-1-yl)-2-propylamine Fumarate] | 158 to 159 |  |  |  |  |  | 
COc1ccc2c(C)nn(C[C@H](C)N)c2c1 [Example 2, (S)-1-(6-Methoxy-3-methylindazol-1-yl)-2-propylamine Fumarate] |  | 44 | 74 | 135 | 108 | 59 | 210
CCc1nn(C[C@H](C)N)c2cc(C(F)(F)F)ccc12 [Example 5, (S)-1-(3-Ethyl-6-trifluoromethylindazol-1-yl)-2-propylamine Fumarate] |  | 877 | 73 |  |  |  | 
CCc1nn(C[C@H](C)N)c2cc(SC)ccc12 [Example 8, (S)-1-(3-Ethyl-6-methylthioindazol-1-yl)-2-propylamine Fumarate] |  | 8 | 81 | 47 | 285 | 48 | 37
CCc1nn(C[C@H](C)N)c2cc(F)ccc12 [Example 6, (S)-1-(3-Ethyl-6-fluoroindazol-1-yl)-2-propylamine Fumarate] |  | 52 | 47 |  | 288 | 32 | 
Cc1nn(CC(C)N)c2ccccc12 (racemic) [Example 1, (RS)-1-(3-Methylindazol-1-yl)-2-propylamine Fumarate] |  | 960 | 55 | 241 |  |  | 431
CCc1nn(C[C@H](C)N)c2cc(SC)ccc12 (as salt: fumarate) [Example 8, (S)-1-(3-Ethyl-6-methylthioindazol-1-yl)-2-propylamine Fumarate] | 147 to 149 |  |  |  |  |  | 
COc1ccc2c(C)nn(C[C@H](C)N)c2c1 (as salt: fumarate) [Example 2, (S)-1-(6-Methoxy-3-methylindazol-1-yl)-2-propylamine Fumarate] | 180 to 181 |  |  |  |  |  | 
CCc1nn(C[C@H](C)N)c2cc(F)ccc12 (as salt: fumarate) [Example 6, (S)-1-(3-Ethyl-6-fluoroindazol-1-yl)-2-propylamine Fumarate] | 143 to 145 |  |  |  |  |  | 
CCc1nn(C[C@H](C)N)c2cc(Br)ccc12 (as salt: fumarate) [Example 7, (S)-1-(6-Bromo-3-ethylindazol-1-yl)-2-propylamine Fumarate] | 148 to 150 |  |  |  |  |  | 
Cc1nn(C[C@H](C)N)c2cc(F)c(F)cc12 [Example 3, (S)-1-(5,6-Difluoro-3-methylindazol-1-yl)-2-propylamine Fumarate] |  | 84 | 67 | 63 | 152 | 50 | 140
Cc1nn(C[C@H](C)N)c2cc(F)c(F)cc12 (as salt: fumarate) [Example 3, (S)-1-(5,6-Difluoro-3-methylindazol-1-yl)-2-propylamine Fumarate] | 160 to 161 |  |  |  |  |  | 
CCc1nn(C[C@H](C)N)c2cc(Br)ccc12 [Example 7, (S)-1-(6-Bromo-3-ethylindazol-1-yl)-2-propylamine Fumarate] |  | 88 | 69 |  | 739 | 39 | 
Cc1nn(C[C@H](C)N)c2cc(Cl)c(F)cc12 [Example 4, (S)-1-(6-Chloro-5-fluoro-3-methylindazol-1-yl)-2-propylamine Fumarate] |  | 48 | 76 | 26 | 137 | 65 | 75
